Data published in PMC9276676, “Difluoromethylornithine (DFMO) and AMXT 1501 inhibit capsule biosynthesis in pneumococci” (Scientific Reports, 2022).

Legend:
S. pneumoniae D39 = assay type: cell-based, Streptococcus pneumoniae
Method: (§1) This was done to directly compare possible changes in intracellular concentrations of polyamines and capsule precursors as a result of DFMO inhibition of polyamine synthesis to the earlier report where polyamine synthesis was affected via gene deletion in TIGR4[24]. […] Cells were harvested (5000×g, 10 min, 4 °C), re-suspended in extraction solvent [40% acetonitrile, 40% methanol, 20% water with formic acid (0.1 M)] and transferred to bead-beater tubes (MP Biomedicals, Irvine, CA, USA). Cells were lysed using a FastPrep-24™ Classic (45 s, 6.5 m/s, RT, 3 times) (MP Biomedicals, Irvine, CA, USA) and incubated on ice (5 min after each spin). TIGR4 lysates were clarified (6000×g, 5 min, 4 °C), and metabolite differentiation and detection were performed using published protocols[28],[29]. Liquid chromatography-mass spectrometry-based (LC–MS) metabolomic analysis was performed with an Agilent Accurate Mass 6230 TOF coupled with an Agilent 1290 LC system using a Cogent Diamond Hydride Type C column. Briefly, the mobile phase consisted of the following: solvent A (ddH2O with 0.2% formic acid) and solvent B (acetonitrile with 0.2% formic acid). The gradient used was as follows: 0–2 min, 85% B; 3–5 min, 80% B; 6–7 min, 75% B; 8–9 min, 70% B; 10–11.1 min, 50% B; 11.1–14 min 20% B; 14.1–24 min 5% B followed by a 10 min re-equilibration period at 85% B at a flow rate of 0.4 mL/min. Mass axis dynamics was calibrated by continuous infusion of a reference mass solution using an isocratic pump. […] Metabolite identities were searched for using a mass tolerance of < 0.005 Da. Metabolite concentrations from the 5 biological replicates were normalized to biomass based on measurement of residual peptide content in individual samples using the Pierce BCA Protein Assay kit (Thermo Fisher Scientific, Waltham, MA, USA). Data were analyzed using Profinder B.07.00 software (Agilent Technologies, Santa Clara, CA, USA). Extracted molecular features detected in the mass analyzer were identified using accurate mass values and used to generate empirical molecular formulae using an in-house metabolite database that included known intermediates, amino acid precursors and polyamines and their derivatives. Statistical analysis of metabolite peak intensity data was performed using MetaboAnalyst 4.0[30]. Data were normalized (quantile), log transformed and significant fold change between WT and DFMO-treated WT were identified by Student’s t-test (p ≤ 0.05).
To measure the polyamines, glucose and glucuronic acid in D39, TSQ Quantum Access triple-quadrupole tandem mass spectrometer (Thermo Fisher Scientific, Waltham, MA, USA) equipped with acquity UPLC system (Waters, Milford, MA, USA) was operated in positive and negative ion mode. Chromatographic separation was performed on Cogent Diamond Hydride HPLC column (2.1 mm × 150 mm, 4 μm) coupled with Congent Diamond Hydride HPLC Guard column (2.0 mm × 10 mm, 4 μm). The flow rate was 500 µL/min, the sample injection volume was 10 µL, and the column temperature was at 40 °C. The mobile phase A was composed of water with 0.1% v/v formic acid, and mobile phase B was composed of acetonitrile with 0.1% v/v formic acid. The gradient condition was 0 min (5% A, 95% B), 1 min (5% A, 95% B), 4.0 min (30% A, 70% B), 6 min (95% A, 5% B), 6.5 min (95% A, 5% B), 7 min (5% A, 95% B), and 10 min (5% A, 95%B). The total run time was 10 min, and the column eluate directed into the mass spectrometer using an electrospray ionization interface in positive and negative modes. The MS conditions were set as follow: spray voltage = 3500 V, vaporizer temperature = 350 °C, sheath gas = 25 psi, auxiliary gas = 10 psi, and capillary temperature = 350 °C. Samples were run in selected reaction monitoring (SRM) mode, and the optimized MS/MS parameters for ionization are given in Table 1.

S. pneumoniae TIGR4 = assay type: cell-based, Streptococcus pneumoniae; conditions: DFMO 137 mM (1/2 MIC), n = 5
Method: as §1

[1] = set-up: method as in PMID 30262852; conditions: human ref 35; cited from earlier work
[2] = DFMO 34 mM, agmatine 20 mM, AMXT 1501 7.4 µM, p-value in bracket omitted

NCCC[C@](N)(C(=O)O)C(F)F [DFMO, α-difluoromethylornithine]
intracellular glucose (peak intensity) (S. pneumoniae D39; 1/8 MIC DFMO (34 mM), 1/2 MIC AMXT 1501 (7.4 µM)): significantly reduced | intracellular glucuronic acid (peak intensity) (S. pneumoniae D39; 1/8 MIC DFMO (34 mM), 1/2 MIC AMXT 1501 (7.4 µM), separately or in combination): significantly depleted | Agmatine, fold change treated D39 /D39 (S. pneumoniae D39; [2]): -1.3 (2.13E05) | Cadaverine, fold change treated D39 /D39 (S. pneumoniae D39; [2]): -0.8 (0.004) | Lysine, fold change treated D39 /D39 (S. pneumoniae D39; [2]): -0.2 (0.018) | N-acetyl spermidine, fold change treated D39 /D39 (S. pneumoniae D39; [2]): -0.6 (0.094) | N-carbamoyl putrescine, fold change treated D39 /D39 (S. pneumoniae D39; [2]): -1.6 (0.026) | Ornithine, fold change treated D39 /D39 (S. pneumoniae D39; [2]): 0.4 (0.004) | Putrescine, fold change treated D39 /D39 (S. pneumoniae D39; [2]): -0.4 (0.015) | Spermidine, fold change treated D39 /D39 (S. pneumoniae D39; [2]): 0.3 (0.309) | Spermine, fold change treated D39 /D39 (S. pneumoniae D39; [2]): -0.7 (0.002) | 5,10-methylenetetrahydrofolate, fold change TIGR4+DFMO /TIGR4 (S. pneumoniae TIGR4): 4.4 | 5-phospho-α-D-ribose 1-diphosphate (PRPP), fold change TIGR4+DFMO /TIGR4 (S. pneumoniae TIGR4): 3.8 | 6-Phosphogluconate, fold change TIGR4+DFMO /TIGR4 (S. pneumoniae TIGR4): 7.8 | Agmatine, fold change TIGR4+DFMO /TIGR4 (S. pneumoniae TIGR4): -2.0 | Arginine, fold change TIGR4+DFMO /TIGR4 (S. pneumoniae TIGR4): 1.1 | Cadaverine, fold change TIGR4+DFMO /TIGR4 (S. pneumoniae TIGR4): -1.5 | Fructose 6-phosphate, fold change TIGR4+DFMO /TIGR4 (S. pneumoniae TIGR4): -16.8 | Fucose, fold change TIGR4+DFMO /TIGR4 (S. pneumoniae TIGR4): -1.3 | GSH, fold change TIGR4+DFMO /TIGR4 (S. pneumoniae TIGR4): -23.2 | GSSG, fold change TIGR4+DFMO /TIGR4 (S. pneumoniae TIGR4): -41.3 | Galactose 1-phosphate, fold change TIGR4+DFMO /TIGR4 (S. pneumoniae TIGR4): -16.8 | Glucosamine 6-phosphate, fold change TIGR4+DFMO /TIGR4 (S. pneumoniae TIGR4): -21.0 | Glucose 6-phosphate, fold change TIGR4+DFMO /TIGR4 (S. pneumoniae TIGR4): 10.6 | Glyceraldehyde 3-phosphate, fold change TIGR4+DFMO /TIGR4 (S. pneumoniae TIGR4): -308.6 | Lysine, fold change TIGR4+DFMO /TIGR4 (S. pneumoniae TIGR4): -1.7 | Methionine, fold change TIGR4+DFMO /TIGR4 (S. pneumoniae TIGR4): -1.8 | N-Acetylspermidine, fold change TIGR4+DFMO /TIGR4 (S. pneumoniae TIGR4): -1.6 | NADH, fold change TIGR4+DFMO /TIGR4 (S. pneumoniae TIGR4): -358.8 | NADPH, fold change TIGR4+DFMO /TIGR4 (S. pneumoniae TIGR4): 25.1 | Ornithine, fold change TIGR4+DFMO /TIGR4 (S. pneumoniae TIGR4): -1.3 | Putrescine, fold change TIGR4+DFMO /TIGR4 (S. pneumoniae TIGR4): -1.9 | Pyruvate, fold change TIGR4+DFMO /TIGR4 (S. pneumoniae TIGR4): -1.74 | S-adenosylmethionine, fold change TIGR4+DFMO /TIGR4 (S. pneumoniae TIGR4): 64.2 | Sedoheptulose 7-phosphate, fold change TIGR4+DFMO /TIGR4 (S. pneumoniae TIGR4): -13.5 | Spermidine, fold change TIGR4+DFMO /TIGR4 (S. pneumoniae TIGR4): -3.1 | Spermine, fold change TIGR4+DFMO /TIGR4 (S. pneumoniae TIGR4): 26.6 | Tetrahydrofolate, fold change TIGR4+DFMO /TIGR4 (S. pneumoniae TIGR4): -1.4 | UDP, fold change TIGR4+DFMO /TIGR4 (S. pneumoniae TIGR4): -53.1 | UDP-Galactose, fold change TIGR4+DFMO /TIGR4 (S. pneumoniae TIGR4): -66.5 | UDP-Glucose, fold change TIGR4+DFMO /TIGR4 (S. pneumoniae TIGR4): -66.5 | UDP-N-acetylfucosamine, fold change TIGR4+DFMO /TIGR4 (S. pneumoniae TIGR4): 2.3 | UDP-N-acetylgalactosamine, fold change TIGR4+DFMO /TIGR4 (S. pneumoniae TIGR4): -18.9 | UDP-N-acetylglucosamine, fold change TIGR4+DFMO /TIGR4 (S. pneumoniae TIGR4): -18.9 | UDP-N-acetylmannosamine, fold change TIGR4+DFMO /TIGR4 (S. pneumoniae TIGR4): -18.9 | UDP-N-acetylmuramic acid, fold change TIGR4+DFMO /TIGR4 (S. pneumoniae TIGR4): -259.2 | UMP, fold change TIGR4+DFMO /TIGR4 (S. pneumoniae TIGR4): -2.1 | safe dosage for use in human [1]: around 1.0 g/m^2/day | safe dosage for use in human, as concentration [1]: 1 to 2 mM
